# Source: patent US9868692B2, “Compounds and compositions for intracellular delivery of therapeutic agents” (MODERNATX, Inc., priority 2015, dated 2018)
# Legend:
# IL-6 = experiment: Cytokine induction (IL-6) after intravenous administration to mice; type: in vivo; details: i.v., 0.5 mpk, 6 hours (Table 7)
# Description: The introduction of foreign material into a mammalian body induces an innate immune response that promotes cytokine production. Such immune responses to, for example, nanoparticle compositions including therapeutic and/or prophylactics, are undesirable. The induction of certain cytokines is thus measured to evaluate the […] of nanoparticle compositions. The concentrations of various cytokines in mice upon intravenous administration of nanoparticle compositions presented in Table 1A at a dosage of 0.5 mpk was measured at 6 hours. The standard MC3 formulation and a PBS control were also tested. As is evident in Table 7, IL-6 induction was highest for compositions including Compounds 1, 3, 9, 19, and 26, while IP-10 induction was highest for compositions including Compounds 3, 4, 7, 20, and 26. IL-6 induction was lowest for compositions including Compounds 4, 11, 12, and 28. IP-10 induction was lowest for compositions including Compounds 10, 11, 12, 13, 15, 17, and 18.
# (§1) The expression of hEPO and cytokine induction in mice intravenously administered a nanoparticle composition at a dose of 0.5 mpk were measured at 3, 6, and 24 hours. […] The expression of hEPO in mice intramuscularly administered a nanoparticle composition from Table 1B at a dose of 0.01 mpk were measured at 3, 6, and 24 hours. […] (see also FIG. 9.)
# [1] = test system: luciferase (Luc) mRNA expression; experiment: Luc expression (total flux) after intramuscular administration; type: in vivo, mice; details: i.m.
# Procedure: The numbers 1-7 in this figure correspond to MC3, Compounds 168-170, and 173-175 respectively.
# Sample formulations including both modified luciferase (Luc) mRNA and H10 mRNA were prepared and administered intramuscularly and the resulting expression and immunogenicity were evaluated simultaneously. Formulations including compounds according to Formula (I), (IA), (II), (IIa), (IIb), (IIc), (IId) or (IIe) were prepared and administered at doses of 0.001 and 0.01 mpk (e.g., doses of 0.0005 mpk of a formulation including Luc mRNA and a formulation including H10 mRNA or doses of 0.005 mpk of a formulation including Luc mRNA and a formulation including H10 mRNA).
# Sample formulations including modified luciferase (Luc) mRNA prepared and administered intramuscularly and the resulting expression and immunogenicity were evaluated simultaneously. Formulations including compounds according to Formula (I), (IA), (II), (IIa), (IIb), (IIc), (IId) or (IIe) were prepared and administered at dose of […] 0.01 mpk.
# The fluxes measured upon intravenous and intramuscular administration are compared in Table 6. Fluxes are presented as fold increase over that measured for MC3 formulations.
# hEPO mRNA expression = experiment: hEPO expression after intravenous administration to mice; type: in vivo; details: i.v., 0.5 mpk, 3, 6 and 24 hours
# Procedure: Sample formulations of nanoparticle compositions including different lipids are generally first evaluated according to Luc expression in vivo. The activity of several such compositions was further evaluated using an mRNA encoding hEPO. Nanoparticle compositions including Compounds 6, 18, 25, 30, 108-112, 60, and 122, or MC3 were prepared according to Example 2.
# as §1
# [2] = Residual lipid level in spleen of rats (UPLC-MS quantification); type: in vivo; details: rat
# Procedure: (§2) To pre-weighed tissues, Milli-Q water was added (900 μL water per 100 mg tissue). Tissues were homogenized using an Omni probe homogenizer until uniform. 50 μL of samples and matrix calibration standards were aliquoted into a 96-well plate. 50 μL of blank matrix for matrix blanks and control blanks were aliquoted. 400 μL IS spiking solution were manually added to all samples except matrix blanks. 400 μL of 50:50 ACN:IPA were manually added to matrix blanks. The plate was covered and the samples vortexed and centrifuged for 5 minutes at >3000 rpm. 200 μL of the samples were transferred into a clean 96-well plate for analysis. […] Detection was based on electrospray ionization (ESI) in positive mode using a Sciex API5500 Mass Spectrometer.
# (§3) The expression of hEPO in rats intravenously administered a nanoparticle composition at a dose of 0.2 mpk or 2.0 mpk was measured at 6 hours. […] Liver and spleen levels represent the average values calculated for 3 rats in each group.
# (§4) The expression of hEPO and lipid levels in the liver and spleen in rats intravenously administered a nanoparticle composition at a dose of 0.2 mpk was measured at various timepoints. […] Lipids were formulated according to the standard MC3 formulation described above.
# [3] = Residual lipid level in liver of rats (UPLC-MS quantification); type: in vivo; details: rat; for concentration at 0.25 h / concentration at 0.5 h / concentration at 1 h / concentration at 2 h / concentration at 4 h / concentration at 8 h / concentration at 24 h / concentration at 48 h: liver; for % Lipid Remaining in liver, 48 h 2 mpk: assuming 300 g rat and 15 g liver
# Procedure: as §2, §3, §4
# [4] = Encapsulation efficiency of RNA, QUANT-IT RIBOGREEN RNA assay; type: physicochemical; details: Table 1A formulations
# In short: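 Nanoparticle samples at about 5 μg/mL RNA in TE buffer pH 7.5 were mixed with TE or with a 2% Triton X-100 solution, incubated 15 min at 37 °C, then stained with RiboGreen diluted 1:100. Fluorescence was read at about 480/520 nm and blank-subtracted. Free RNA % was taken as intact over Triton-disrupted fluorescence.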
# [5] = Particle size, polydispersity index (and zeta potential) of nanoparticle compositions, Zetasizer Nano ZS; type: physicochemical; details: Table 1A formulations
# In short: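 Particle size and polydispersity index were measured by dynamic light scattering on a Zetasizer Nano ZS in 1×PBS. Zeta potential was measured in 15 mM PBS.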
# [6] = Clinical chemistry and hematology after intravenous administration to rat; type: in vivo; details: i.v., 2 mpk, 48 h post dose
# Procedure: Sample formulations of nanoparticle compositions including different lipids were administered intravenously to rat at a dose of 2 mpk. The expression of various clinical markers was evaluated at 48 h post dose and compared to that induced by administration of MC3 formulations or phosphate buffered saline (PBS).
# Table 19 summarizes the hEPO expression, IP-10 induction, liver and spleen levels, and alanine aminotransferase (ALT) and aspartate aminotransferase (AST) measured upon intravenous administration of formulations including Compounds 48, 49, and 50 to rat at 0.2 and 2 mpk and hEPO mRNA. hEPO concentrations were measured 6 hours after administration, while cytokine induction and liver and spleen levels were measured 48 hours after administration. hEPO and IP-10 concentrations are presented in pg/ml, while liver levels are provided in ng/g. ALT and AST levels are presented in international units.
# [7] = Lipid clearance: % dose remaining in liver after administration of Luc formulations; type: in vivo, mice; details: Table 3D
# [8] = 0.2 mg/kg, intravenous, 0.2 mpk
smiles,measurement,setting,value
"CCCCCCCCCOC(=O)CCCCCCCN(CCO)CCCCCCCCCC(=O)OC(CCCCCCCC)CCCCCCCC [Compound 23, Heptadecan-9-yl 10-((2-hydroxyethyl)(8-(nonyloxy)-8-oxooctyl)amino) decanoate]",IL-6,IL-6,94.00
"CCCCCCCCCOC(=O)CCCCCCCN(CCCCO)CCCCCCCC(=O)OC(CCCCCCCC)CCCCCCCC [Compound 20, Heptadecan-9-yl 8-((4-hydroxybutyl)(8-(nonyloxy)-8-oxooctyl)amino) octanoate]",expression at both dose levels,[1]; 0.001 and 0.01 mpk,highest expression
same,Total flux (p/s) 0.01 mpk Dose,"[1]; 6 hours, Luc mRNA and H10 mRNA, 0.01 mpk (Table 5A)",9.72E+07 p/s
"CCCCC/C=C\C/C=C\CCCCCCCCN(CCO)CCCCCCCC(=O)OC(CCCCCCCC)CCCCCCCC [Compound 6, Heptadecan-9-yl 8-((2-hydroxyethyl)((9Z,12Z)-octadeca-9,12-dien-1-yl)amino)octanoate]",hEPO concentrations versus MC3 formulations at each time point,hEPO mRNA expression,higher hEPO concentrations than MC3 formulations
"CCCCCCCCCOC(=O)CCCCCCCN(CCO)CCCCCCCC(=O)OC(CCCCCCCC)CCCCCCCC [Compound 18, Heptadecan-9-yl 8-((2-hydroxyethyl)(8-(nonyloxy)-8-oxooctyl)amino)octanoate]",concentration at 0.25 h,[2]; [8],1230 ng/g
same,concentration at 0.5 h,[2]; [8],2020 ng/g
same,concentration at 1 h,[2]; [8],3210 ng/g
same,concentration at 2 h,[2]; [8],3070 ng/g
same,concentration at 4 h,[2]; [8],3770 ng/g
same,concentration at 8 h,[2]; [8],1340 ng/g
same,concentration at 24 h,[2]; [8],271 ng/g
same,concentration at 48 h,"[2]; 0.2 mg/kg, intravenous, 0.2 mpk, read-out: Lipid level in spleen",92 ng/g
same,hEPO concentrations versus MC3 formulations at each time point,hEPO mRNA expression,higher hEPO concentrations than MC3 formulations
same,concentration at 0.25 h,[3]; [8],5370 ng/g
same,concentration at 0.5 h,[3]; [8],6020 ng/g
same,concentration at 1 h,[3]; [8],6050 ng/g
same,concentration at 2 h,[3]; [8],2040 ng/g
same,concentration at 4 h,[3]; [8],839 ng/g
same,concentration at 8 h,[3]; [8],296 ng/g
same,concentration at 24 h,[3]; [8],5 ng/g
same,concentration at 48 h,"[3]; 0.2 mg/kg, intravenous, 0.2 mpk, 48 h, read-out: Lipid level in liver",5370 ng/g
same,"% Lipid Remaining in liver, 48 h 2 mpk","[3]; 2 mpk, 48 h",0.018%
same,EE (%),[4],97.50%
same,PDI,[5],0.042
"CCCCCC=CCC=CCCCCCCCCC(CCCCCCCCC=CCC=CCCCCC)OC(=O)CCCN(C)C (stereo not shown) [MC3, heptatriaconta-6,9,28,31-tetraen-19-yl 4-(dimethylamino)butanoate, reference compound]",Concentration Alanine aminotransferase,[6],339
same,Concentration Aspartate aminotransferase,[6],325
same,Concentration Lymphocytes,[6],19976
same,Concentration Monocytes,[6],1429
same,Concentration Neutrophils,[6],4962.5
same,concentration at 48 h,"[2]; intravenous, 0.2 mg/kg, 0.2 mpk, average of 3 rats, read-out: Spleen level",9440 ng/g
same,concentration at 48 h,"[2]; intravenous, 2 mg/kg, 2 mpk, average of 3 rats, read-out: Spleen level",129000 ng/g
same,concentration at 0.25 h,"[2]; iv, 0.2 mg/kg, 0.2 mpk",4100 ng/g
same,concentration at 0.5 h,"[2]; iv, 0.2 mg/kg, 0.2 mpk",6240 ng/g
same,concentration at 1 h,"[2]; iv, 0.2 mg/kg, 0.2 mpk",4200 ng/g
same,concentration at 2 h,"[2]; iv, 0.2 mg/kg, 0.2 mpk",8610 ng/g
same,concentration at 4 h,"[2]; iv, 0.2 mg/kg, 0.2 mpk",11900 ng/g
same,concentration at 8 h,"[2]; iv, 0.2 mg/kg, 0.2 mpk",21200 ng/g
same,concentration at 24 h,"[2]; iv, 0.2 mg/kg, 0.2 mpk",19100 ng/g
same,concentration at 48 h,"[2]; iv, 0.2 mg/kg, 0.2 mpk, read-out: Lipid level in spleen",11600 ng/g
same,% Dose Remaining in Liver 6h,[7]; first column of this head,80%
same,% Dose Remaining in Liver 6h,[7]; second column of this head,54%
same,"% Lipid Remaining in liver, 48 h 2 mpk","[3]; 2 mpk, 48 h",87%
same,lipid remained in the liver after 48 hours,[3]; 48 hours after administration (text to Tables 17 and 18),greater than 60%
same,concentration at 48 h,"[3]; intravenous, 0.2 mg/kg, 0.2 mpk, 48 h, average of 3 rats, read-out: Liver level",25000 ng/g
same,concentration at 48 h,"[3]; intravenous, 2 mg/kg, 2 mpk, 48 h, average of 3 rats, read-out: Liver level",285000 ng/g
same,concentration at 0.25 h,"[3]; iv, 0.2 mg/kg, 0.2 mpk",13200 ng/g
same,concentration at 0.5 h,"[3]; iv, 0.2 mg/kg, 0.2 mpk",20500 ng/g
same,concentration at 1 h,"[3]; iv, 0.2 mg/kg, 0.2 mpk",16800 ng/g
same,concentration at 2 h,"[3]; iv, 0.2 mg/kg, 0.2 mpk",26000 ng/g
same,concentration at 4 h,"[3]; iv, 0.2 mg/kg, 0.2 mpk",24700 ng/g
same,concentration at 8 h,"[3]; iv, 0.2 mg/kg, 0.2 mpk",32600 ng/g
same,concentration at 24 h,"[3]; iv, 0.2 mg/kg, 0.2 mpk",33000 ng/g
same,concentration at 48 h,"[3]; iv, 0.2 mg/kg, intravenous, 0.2 mpk, 48 h, read-out: Lipid level in liver",13200 ng/g
same,concentration at 48 h,"[3]; iv, 0.2 mg/kg, intravenous, 0.2 mpk, 48 hours, read-out: Liver level",11300 ng/g
same,concentration at 48 h,"[3]; iv, 2 mg/kg, intravenous, 2 mpk, 48 hours, read-out: Liver level",141000 ng/g
